Experimental data published in ChEMBL document CHEMBL1201862, “PubChem BioAssay data set” (2004).
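Where inhibition never reached the appropriate level, the endpoint shown equals the highest concentration tested. Otherwise, values were interpolated linearly from a five-concentration, 48-hour dose response in 96-well plates. At the GI50, growth is halved.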 The source made the active and inactive calls. Cut-off read from the data, not from the text of the source: active = GI50 up to about 1.1 µM and inactive = higher.

Tests used:
Test in all cases: NCI-60 cell line screen, 48 h
DLD-1 = test system: DLD-1
DMS-114 = test system: DMS-114
DMS-273 = test system: DMS-273
HOP-18 = test system: HOP-18
KM-20L2 = test system: KM-20L2
LXFL 529 = test system: LXFL 529
M19-MEL = test system: M19-MEL
RXF 631 = test system: RXF 631
XF498 = test system: XF498

| Structure (SMILES) | GI50 (DLD-1) | GI50 (DMS-114) | GI50 (DMS-273) | GI50 (HOP-18) | GI50 (KM-20L2) | GI50 (LXFL 529) | GI50 (M19-MEL) | GI50 (RXF 631) | GI50 (XF498) |
| --- | --- | --- | --- | --- | --- | --- | --- | --- | --- |
| CC1=C(C(=O)Nc2ccc(Cl)c(Cl)c2)C(c2ccc([N+](=O)[O-])cc2)C(C(=O)Nc2ccc(Cl)c(Cl)c2)=C(C)N1 | 3.41 µM (inactive) | 2.88 µM (inactive) | 2.91 µM (inactive) | 3.6 µM (inactive) | 1.66 µM (inactive) | 2.77 µM (inactive) | 1.82 µM (inactive) | 2.04 µM (inactive) | 1.44 µM (inactive) |
| O=C1/C(=N\O)c2ccccc2S1(=O)=O | > 100 µM (inactive) | > 100 µM (inactive) | > 100 µM (inactive) | > 100 µM (inactive) | > 100 µM (inactive) | 69.2 µM (inactive) | > 100 µM (inactive) | – | – |
| CCN(CC)CC1CCCCCCCCCCC1=O (stereo not drawn) | > 100 µM (inactive) | > 100 µM (inactive) | > 100 µM (inactive) | – | > 100 µM (inactive) | > 100 µM (inactive) | > 100 µM (inactive) | – | > 100 µM (inactive) |
| CC(=O)CCC1(c2ccccc2)OC(=O)C(C#N)=C1c1ccccc1 (stereo not drawn) | > 100 µM (inactive) | > 100 µM (inactive) | > 100 µM (inactive) | – | > 100 µM (inactive) | 59.4 µM (inactive) | > 100 µM (inactive) | > 100 µM (inactive) | > 100 µM (inactive) |
| FC(F)(F)c1ccc2c(c1)N(CCCNCCN1CCOCC1)c1ccccc1S2 | 16.2 µM (inactive) | – | 16.8 µM (inactive) | – | 4.69 µM (inactive) | 12.7 µM (inactive) | 7.14 µM (inactive) | – | 3.81 µM (inactive) |
| O=c1[nH]c(C2CCCCC2)nc2ccc(Cl)cc12 | – | > 100 µM (inactive) | > 100 µM (inactive) | – | > 100 µM (inactive) | > 100 µM (inactive) | > 100 µM (inactive) | – | – |
| Cc1cccc(C)c1NC(=O)CCc1nnc2s/c(=C\c3ccc(N(C)C)cc3)c(=O)n12 | > 100 µM (inactive) | 50.6 µM (inactive) | > 100 µM (inactive) | – | > 100 µM (inactive) | > 100 µM (inactive) | – | > 100 µM (inactive) | > 100 µM (inactive) |
| Nc1nc(O)c2ncn(C3OC(CO)C(O)C3O)c2n1 (stereo not drawn) | 65.3 µM (inactive) | 6.15 µM (inactive) | 58.7 µM (inactive) | 49.8 µM (inactive) | 16.8 µM (inactive) | – | 16 µM (inactive) | – | – |
| O=S(OC12CC3CC(CC(C3)C1)C2)c1cc(Cl)cc(Cl)c1OCc1ccccc1 (stereo not drawn) | > 100 µM (inactive) | 73.8 µM (inactive) | – | – | – | > 100 µM (inactive) | > 100 µM (inactive) | > 100 µM (inactive) | > 100 µM (inactive) |
| O=C1CC2C(=O)N(Cc3ccccc3)C1C(S(=O)(=O)c1ccccc1)C2S(=O)(=O)c1ccccc1 (stereo not drawn) | 1.59 µM (inactive) | 1.29 µM (inactive) | 5.46 µM (inactive) | 3.78 µM (inactive) | 2.4 µM (inactive) | 1.31 µM (inactive) | 2.06 µM (inactive) | 12.5 µM (inactive) | 1.86 µM (inactive) |
| C/C(=N/NC(=O)CC(=O)N(C(=O)c1ccccc1Cl)c1ccc(C)cc1)c1cc2ccccc2oc1=O | > 100 µM (inactive) | 49.8 µM (inactive) | > 100 µM (inactive) | > 100 µM (inactive) | > 100 µM (inactive) | > 100 µM (inactive) | > 100 µM (inactive) | > 100 µM (inactive) | > 100 µM (inactive) |
| [O-][S+]1c2ccccc2N=C(c2ccc(Cl)cc2)CC1c1cccs1 (stereo not drawn) | 12.2 µM (inactive) | 14.6 µM (inactive) | 14.6 µM (inactive) | 29.2 µM (inactive) | 20.9 µM (inactive) | – | 17.7 µM (inactive) | – | – |
| Cc1cn(C2CC(N(O)Cc3ccccc3)C(CO)O2)c(=O)[nH]c1=O (stereo not drawn) | – | > 100 µM (inactive) | > 100 µM (inactive) | – | > 100 µM (inactive) | > 100 µM (inactive) | > 100 µM (inactive) | – | > 100 µM (inactive) |
| Cc1cc(O)c2c(c1)C(=O)c1c(c(O)cc(O)c1-c1c(O)cc(O)c3c1C(=O)c1cc(C)cc(O)c1C3=O)C2=O [SKYRIN] | 8.75 µM (inactive) | 16.7 µM (inactive) | 7.76 µM (inactive) | 10.4 µM (inactive) | 16.3 µM (inactive) | – | 17.1 µM (inactive) | – | 21.1 µM (inactive) |
| CCOC(=O)C1Nc2ccc([N+](=O)[O-])cc2[C@H]2OCC[C@@H]12 (stereo partly drawn) | > 100 µM (inactive) | > 100 µM (inactive) | > 100 µM (inactive) | > 100 µM (inactive) | > 100 µM (inactive) | – | > 100 µM (inactive) | > 100 µM (inactive) | > 100 µM (inactive) |
| Cc1cccc(C)c1NC(=O)CCC(=O)NNC(=O)c1cc(O)c2ccccc2c1 | 34.9 µM (inactive) | 21.8 µM (inactive) | – | 11.6 µM (inactive) | 34.4 µM (inactive) | 29.6 µM (inactive) | 35.2 µM (inactive) | – | 50.6 µM (inactive) |
| CC(=O)NC1CC2Oc3ccc(C)cc3C(C)(O2)C1O (stereo not drawn) | > 100 µM (inactive) | > 100 µM (inactive) | > 100 µM (inactive) | > 100 µM (inactive) | – | – | > 100 µM (inactive) | – | > 100 µM (inactive) |
| COc1ccc(/C(Cl)=C(\C=O)c2ccc(Cl)c(Cl)c2)cc1 | 10.7 µM (inactive) | 4.06 µM (inactive) | 13.1 µM (inactive) | 14.7 µM (inactive) | 11.7 µM (inactive) | 5.81 µM (inactive) | 13.1 µM (inactive) | – | 10.8 µM (inactive) |
| CC1NCCc2c1[nH]c1cc(O)ccc21 (stereo not drawn) | > 100 µM (inactive) | > 100 µM (inactive) | – | > 100 µM (inactive) | > 100 µM (inactive) | > 100 µM (inactive) | > 100 µM (inactive) | – | > 100 µM (inactive) |
| CCOC(=O)C(=C=C=C(c1ccccc1)c1ccccc1)C(=O)OCC | 18.5 µM (inactive) | 18.5 µM (inactive) | 20.3 µM (inactive) | – | 20.9 µM (inactive) | 16.9 µM (inactive) | 18.4 µM (inactive) | 24 µM (inactive) | 15.1 µM (inactive) |
| FC(F)(F)C1(Cl)C(Cl)(c2ccccc2)C1(Cl)c1ccccc1 (stereo not drawn) | 15.4 µM (inactive) | 15.6 µM (inactive) | 14.9 µM (inactive) | 11.1 µM (inactive) | 13.9 µM (inactive) | 16.3 µM (inactive) | 15.6 µM (inactive) | – | 15.7 µM (inactive) |
| O=C1OC(c2cccc(C(F)(F)F)c2)(c2cccc(C(F)(F)F)c2)c2ccc3ccccc3c21 | > 10 µM (inactive) | 6.18 µM (inactive) | > 10 µM (inactive) | > 10 µM (inactive) | 7.67 µM (inactive) | 8.24 µM (inactive) | – | – | > 100 µM (inactive) |
| COc1cc(OC)c(OC)cc1/C=C\c1ccnc2ccccc12 | 0.944 µM (active) | 0.649 µM (active) | 0.317 µM (active) | – | 0.948 µM (active) | 1.45 µM (inactive) | 0.851 µM (active) | – | – |
